# Measured values from article PMC11316643 (European journal of medicinal chemistry, 2024).
# Read-outs that look alike come from different tables or passages of the source.
# Columns and labels:
# [1] = biological target: human kappa opioid receptor (KOR) (Homo sapiens, UniProt P41145); test: 35S-GTPγS binding assay of KOR G protein activation in CHO-hKOR membranes; format: biochemical
# human KOR = human KOR (Homo sapiens, UniProt P41145); test: Bias analysis by operational model
# Sequence of human KOR (P41145 whole entry): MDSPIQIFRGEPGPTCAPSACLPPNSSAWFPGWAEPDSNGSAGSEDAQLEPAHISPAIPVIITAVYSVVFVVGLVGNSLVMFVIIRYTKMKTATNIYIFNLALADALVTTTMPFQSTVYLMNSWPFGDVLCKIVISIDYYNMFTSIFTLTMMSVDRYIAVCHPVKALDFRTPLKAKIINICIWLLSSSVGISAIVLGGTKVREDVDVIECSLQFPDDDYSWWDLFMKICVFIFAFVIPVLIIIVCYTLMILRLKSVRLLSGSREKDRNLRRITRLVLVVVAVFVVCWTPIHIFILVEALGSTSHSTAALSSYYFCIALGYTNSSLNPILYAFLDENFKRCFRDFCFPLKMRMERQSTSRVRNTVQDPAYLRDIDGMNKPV
# Sequence of human KOR (P32121 whole entry partner): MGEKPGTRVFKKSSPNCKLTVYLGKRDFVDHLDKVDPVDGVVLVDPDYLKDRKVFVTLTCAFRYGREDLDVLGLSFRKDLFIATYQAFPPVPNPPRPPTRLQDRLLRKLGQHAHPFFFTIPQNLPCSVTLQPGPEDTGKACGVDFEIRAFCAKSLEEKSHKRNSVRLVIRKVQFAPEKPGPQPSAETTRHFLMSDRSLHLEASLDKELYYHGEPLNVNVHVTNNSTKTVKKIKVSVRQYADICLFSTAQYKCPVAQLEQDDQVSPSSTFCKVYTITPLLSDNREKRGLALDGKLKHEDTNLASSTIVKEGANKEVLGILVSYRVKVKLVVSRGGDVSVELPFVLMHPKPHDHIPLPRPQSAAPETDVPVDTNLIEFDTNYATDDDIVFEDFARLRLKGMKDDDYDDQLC
# Sequence of human kappa opioid receptor (KOR) (P41145 whole entry): as the sequence (P41145 whole entry) above
compound,measurement,setting,value
"C(=C/c1nnc(-c2ccccn2)n1Cc1ccco1)/c1ccccc1 [5c, (Z)-2-(4-(Furan-2-ylmethyl)-5-styryl-4H-1,2,4-triazol-3-yl)pyridine]",KOR agonist activity (GTPγS) in words,[1],dramatic loss in potency
"Brc1ccccc1CCc1nnc(-c2ccccn2)n1Cc1cccs1 [4g, 2-(5-(2-Bromophenethyl)-4-(thiophen-2-ylmethyl)-4H-1,2,4-triazol-3-yl)pyridine]",fold decrease in potency of ortho bromo vs para-bromo (4e),[1],ca. 10 fold
"Cc1ccc(/C=C/c2nnc(-c3ccccn3)n2Cc2ccco2)cc1C(F)(F)F [5d, (E)-2-(4-(Furan-2-ylmethyl)-5-(4-methyl-3-(trifluoromethyl)styryl)-4H-1,2,4-triazol-3-yl)pyridine]",KOR agonist activity (GTPγS) in words,[1],dramatic loss in potency
"Cc1ccc(CCc2nnc(-c3cccnc3)n2Cc2cccs2)cc1C(F)(F)F [3b, 3-(5-(4-Methyl-3-(trifluoromethyl)phenethyl)-4-(thiophen-2-ylmethyl)-4H-1,2,4-triazol-3-yl)pyridine]",KOR agonist activity (GTPγS) in words,[1],significant loss of activity
"Cc1ccc(CCc2nnc(-c3ccccn3)n2-c2ccccc2)cc1C(F)(F)F [2g, 2-(5-(4-Methyl-3-(trifluoromethyl)phenethyl)-4-phenyl-4H-1,2,4-triazol-3-yl)pyridine]",KOR agonist activity (GTPγS) in words,[1],inactive
"Cc1ccc(CCc2nnc(-c3ccccn3)n2Cc2ccncc2)cc1C(F)(F)F [2j, 2-(5-(4-Methyl-3-(trifluoromethyl)phenethyl)-4-(pyridin-4-ylmethyl)-4H-1,2,4-triazol-3-yl)pyridine]",KOR agonist activity (GTPγS) in words,[1]; SAR discussion,inactive
"FC(Cc1ccccc1)c1nnc(-c2ccccn2)n1Cc1ccco1 (centres unmarked) [5g, 2-(5-(1-Fluoro-2-phenylethyl)-4-(furan-2-ylmethyl)-4H-1,2,4-triazol-3-yl)pyridine]",fold loss of potency compared to compound 4a,[1],3 fold
"Cc1ccc(CCc2nnc(-c3ccncc3)n2Cc2cccs2)cc1C(F)(F)F [3c, 4-(5-(4-Methyl-3-(trifluoromethyl)phenethyl)-4-(thiophen-2-ylmethyl)-4H-1,2,4-triazol-3-yl)pyridine]",KOR agonist activity (GTPγS) in words,[1]; SAR discussion,significant loss of activity
"c1ccc(-c2nnc(C3CCc4ccccc4C3)n2Cc2cccs2)nc1 (centres unmarked) [5a, 2-(5-(1,2,3,4-Tetrahydronaphthalen-2-yl)-4-(thiophen-2-ylmethyl)-4H-1,2,4-triazol-3-yl)pyridine]",KOR agonist activity (GTPγS) in words,[1]; SAR discussion,detrimental to activity
"C(#Cc1nnc(-c2ccccn2)n1Cc1ccco1)c1ccccc1 [5b, 2-(4-(Furan-2-ylmethyl)-5-(phenylethynyl)-4H-1,2,4-triazol-3-yl)pyridine]",KOR agonist activity (GTPγS) in words,[1]; SAR discussion,dramatic loss in potency
"Cc1ccc(CCc2nnc(-c3ccccc3)n2Cc2cccs2)cc1C(F)(F)F [3a, 3-(4-Methyl-3-(trifluoromethyl)phenethyl)-5-phenyl-4-(thiophen-2-ylmethyl)-4H-1,2,4-triazole]",KOR agonist activity (GTPγS) in words,[1],significant loss of activity
"Cc1ccc(CCc2nnc(-c3ccccn3)n2CC2CC2)cc1C(F)(F)F [2k, 2-(4-(Cyclopropylmethyl)-5-(4-methyl-3-(trifluoromethyl)phenethyl)-4H-1,2,4-triazol-3-yl)pyridine]",fold decrease in potency on cyclopropane substitution,[1],10 fold
"Cc1ccc(CCc2nnc(-c3ccccn3)n2Cc2cccs2)cc1C(F)(F)F [2d, 2-(5-(4-Methyl-3-(trifluoromethyl)phenethyl)-4-(thiophen-2-ylmethyl)-4H-1,2,4-triazol-3-yl)pyridine]","bias (bias factor, G protein over βarrestin2)",human KOR,38
"c1ccc(-c2nnc(-c3ccccn3)n2Cc2cccs2)cc1 [5j, 2-(5-Phenyl-4-(thiophen-2-ylmethyl)-4H-1,2,4-triazol-3-yl)pyridine]",KOR agonist activity (GTPγS) in words,[1],loss of activity
